The target in this assay is C-X-C chemokine receptor type 6 (Homo sapiens) (UniProt O00574). The experiment in a line: CXCR6 receptor antagonists, dose response, cell-based, beta-arrestin, DiscoveRx, APJ panel, uHTS hits (AID 624129). The note with it: CXCR6 beta-arrestin (DiscoveRx) antagonist cell assay; for outcome: CXCR6, dose range 1; for inhibition: CXCR6, run 2, dose range 1, at 79 µM (top of the series).

The mark [1] stands for this setting: CXCR6, dose range 1, mean IC50 across replicates.

The structures appear in SMILES notation. Calls of active or inactive are those of the source. The rule behind the calls is not given here.

Broadly, the IC50 is the concentration needed to halve the response being measured. Low values mean greater potency, high ones weaker potency. For orientation: inhibition means the relative decrease from the control value, in per cent.

C-X-C chemokine receptor type 6 (Homo sapiens), sequence (O00574 whole entry, looked up): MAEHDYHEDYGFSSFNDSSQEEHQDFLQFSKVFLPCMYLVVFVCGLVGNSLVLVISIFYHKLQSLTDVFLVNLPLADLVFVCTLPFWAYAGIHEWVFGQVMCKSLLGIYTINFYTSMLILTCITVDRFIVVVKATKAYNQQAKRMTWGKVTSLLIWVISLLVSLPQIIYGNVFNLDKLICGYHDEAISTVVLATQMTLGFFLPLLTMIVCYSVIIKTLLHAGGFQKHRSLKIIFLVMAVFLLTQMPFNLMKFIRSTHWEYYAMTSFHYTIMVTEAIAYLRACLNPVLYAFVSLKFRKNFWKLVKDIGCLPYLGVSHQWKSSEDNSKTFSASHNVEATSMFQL

Regarding `CC(=O)NS(=O)(=O)c1ccc(Nc2ccc([N+](=O)[O-])c3nonc23)cc1`, the outcome was inactive and the inhibition stood at 85.9%. Under setting [1], this compound showed an IC50 of 46.6 µM. This compound also returned an IC50 (CXCR6, run 1, dose range 2) of 35.6 µM. Also, under “CXCR6, run 2, dose range 2”, the IC50 was 57.6 µM.
On the same counts, the results for `C=CCN(CC=C)C(=S)NC(=O)c1ccc(C)c(Br)c1` are “inactive”, 65.4%, 12.6 µM, 11.7 µM and 13.4 µM.
The corresponding values for `COc1cc(/C=C/[N+](=O)[O-])ccc1OC(=O)c1cc2ccccc2oc1=O` are “inactive”, 112%, 11.6 µM, 12.1 µM and 11.2 µM.
On the same counts, the results for `CS(=O)(=O)c1ccc(C(=O)OCC(=O)N2CCN(CCC3CCCCC3)CC2)cc1[N+](=O)[O-]` are “inactive”, 111%, 11.2 µM, 10.6 µM and 11.8 µM.
On to `COc1cc(/C=C2\SC(=O)N(c3ccc(Cl)cc3)C2=O)cc([N+](=O)[O-])c1O`, for which the result was inactive and the inhibition came to 88.6%. This compound also yielded an IC50 under setting [1] of 20.6 µM. This compound came in with an IC50 (CXCR6, run 1, dose range 2) of 12.8 µM. For the same compound, the IC50 (CXCR6, run 2, dose range 2) was 28.4 µM.
On the same counts, the results for `CCOc1ccc(Nc2ccc([N+](=O)[O-])c3nonc23)cc1` are “inactive”, 81.7%, 38.8 µM, 33.7 µM and 43.9 µM.
The corresponding values for `O=[N+]([O-])c1cc(-c2ncccn2)c([N+](=O)[O-])s1` are “inactive”, 111%, 24 µM, 23.8 µM and 24.3 µM.
The corresponding values for `CCCCC(=O)NC(=S)NNC(=O)c1ccc(OC)cc1` are “inactive”, 98%, 11.5 µM, 10.2 µM and 12.9 µM.
Turning to `COC(=O)c1ccc(NC(=O)c2nc(S(=O)(=O)Cc3cccc(C)c3)ncc2Cl)cc1`, the result was inactive and the inhibition came out at 107%. Under setting [1], this compound displayed an IC50 of 16.3 µM. The IC50 (CXCR6, run 1, dose range 2) was found to be 15.4 µM. The IC50 (CXCR6, run 2, dose range 2) stood at 17.2 µM.
Turning to `Cc1ccc(S(=O)(=O)c2ccc([N+](=O)[O-])cn2)cc1`, the outcome was inactive and the inhibition worked out at 109%. This compound gave an IC50 under setting [1] of 11.7 µM. The IC50 (CXCR6, run 1, dose range 2) stood at 11.5 µM. In addition, the IC50 (CXCR6, run 2, dose range 2) came out at 11.9 µM.
On the same counts, the results for `O=C(NNC(=O)c1cc(-c2ccccc2)nn1-c1ccccc1)c1ccccc1` are “inactive”, 75%, 11.5 µM, 10.4 µM and 12.6 µM.
On the same counts, the results for `O=C(NC(=S)N(CCc1ccccc1)CCc1ccccc1)c1ccco1` are “inactive”, 68.8%, 26 µM, 8.84 µM and 43.2 µM.
The corresponding values for `Cn1c(=O)[nH]c(=O)c2c1nc(Sc1nc3ccccc3s1)n2Cc1ccccc1` are “inactive”, 77.5%, 21.9 µM, 18.3 µM and 25.6 µM.
As to `Cn1cnc([N+](=O)[O-])c1S(=O)(=O)Oc1ccccc1`, the result was inactive and the inhibition was determined as 111%. Also, the IC50 under setting [1] came out at 19.4 µM. The IC50 (CXCR6, run 1, dose range 2) amounted to 16.5 µM. This compound also came in with an IC50 (CXCR6, run 2, dose range 2) of 22.3 µM.
The corresponding values for `COc1ccc(/C=C(/C(=O)c2cccs2)N2C=CC=CC2=C(C#N)C#N)cc1` are “inactive”, 109%, 19.9 µM, 20.3 µM and 19.5 µM.
With `COc1ccc(-c2c(C(=O)c3ccccc3)[nH]c(N)c2C(=O)c2ccccc2)cc1OC`, the result was inactive and the inhibition was determined as 71.1%. This compound yielded an IC50 under setting [1] of 28.4 µM. Where the note is “CXCR6, run 1, dose range 2”, the IC50 was found to be 33.1 µM. Under “CXCR6, run 2, dose range 2”, the IC50 stood at 23.8 µM.
On the same counts, the results for `Nc1nc(N)c2c(ccc3c2ccn3Cc2cccc([N+](=O)[O-])c2)n1` are “inactive”, 110%, 16.9 µM, 15.8 µM and 18 µM.
The corresponding values for `COc1cc(/C=C/[N+](=O)[O-])ccc1OC(=O)c1cccnc1` are “inactive”, 108%, 25.5 µM, 19.1 µM and 31.9 µM.
Take `CCCc1cc(=O)oc2cc(OC(=O)CN3C(=O)NC4(CCCC4)C3=O)ccc12`: the result was inactive and the inhibition is 61.7%. For the same compound, under setting [1], the IC50 came out at 50.5 µM. Under “CXCR6, run 1, dose range 2”, the IC50 worked out at 50.5 µM. This compound yielded an IC50 (CXCR6, run 2, dose range 2) of more than 79 µM.
For `O=C(C#Cc1ccccc1)c1ccccc1`, the outcome was inactive and the inhibition came out at 113%. Moreover, the 50% inhibitory concentration (IC50) under setting [1] was 11.3 µM. The same compound yielded an IC50 (CXCR6, run 1, dose range 2) of 10.9 µM. The compound further yielded an IC50 (CXCR6, run 2, dose range 2) of 11.6 µM.
On the same counts, the results for `CN(C)CC1CC/C(=C\c2ccc(O)cc2)C1=O` (stereo not given) are “inactive”, 111%, 14 µM, 14.3 µM and 13.8 µM.
The corresponding values for `COc1ccc(/C=C2/CCC(CN3CCOCC3)C2=O)cc1` (stereo not given) are “inactive”, 112%, 14.7 µM, 14.3 µM and 15.2 µM.
On the same counts, the results for `COc1ccc(C(=O)NC(=S)Nc2ccc([N+](=O)[O-])cc2C)cc1OC` are “inactive”, 100%, 21.7 µM, 18.3 µM and 25.1 µM.
With `Cc1ccc(P(=O)(c2ccc(C)cc2)[C@@H](NC(c2ccccc2)c2ccccc2)c2ccccc2)cc1`, the result was inactive and the inhibition came out at 82.4%. Moreover, under setting [1], the IC50 amounted to 19.6 µM. Also, the IC50 (CXCR6, run 1, dose range 2) came to 17 µM. Besides, the IC50 (CXCR6, run 2, dose range 2) worked out at 22.1 µM.
With `CC1=C(O)C(=O)C=C2C1=CC=C1C2(C)CCC2(C)C3CC(C)(C(=O)O)CCC3(C)CCC12C` (stereo not given), the outcome was inactive and the inhibition was found to be 113%. Under setting [1], this compound showed an IC50 of 19.3 µM. The compound also had an IC50 (CXCR6, run 1, dose range 2) of 16.7 µM. Under “CXCR6, run 2, dose range 2”, this compound had an IC50 of 21.9 µM.
The corresponding values for `COc1cc(C2C(C#N)=C(N)Oc3n[nH]c(-c4cccs4)c32)cc(OC)c1O` (stereo not given) are “inactive”, 70.9%, 47.3 µM, 36.1 µM and 58.4 µM.
Regarding `COc1ccc(CNC(=O)c2nc(S(=O)(=O)Cc3ccccc3)ncc2Cl)cc1`, the result was inactive and the inhibition came to 108%. The same compound had an IC50 under setting [1] of 17.9 µM. The IC50 (CXCR6, run 1, dose range 2) came out at 15.1 µM. The same compound yielded an IC50 (CXCR6, run 2, dose range 2) of 20.7 µM.
On the same counts, the results for `O=C1CC(Sc2nnnn2-c2ccccc2)C(=O)N1c1cccc(Cl)c1` (stereo not given) are “inactive”, 112%, 11.9 µM, 11.7 µM and 12.2 µM.
As to `CCCC(=O)OCCNc1cc(SCCC(=O)OC)c2nonc2c1[N+](=O)[O-]`, the result was inactive and the inhibition is 108%. Also, the IC50 under setting [1] turned out to be 22 µM. The same compound had a half-maximal inhibitory concentration (IC50) (CXCR6, run 1, dose range 2) of 23.6 µM. Further, the IC50 (CXCR6, run 2, dose range 2) came out at 20.3 µM.
The corresponding values for `CC(C)[C@H](NC(=O)OC(C)(C)C)c1nnc(S(=O)(=O)Cc2c(F)cccc2Cl)o1` are “inactive”, 111%, 13.3 µM, 12.9 µM and 13.8 µM.
The corresponding values for `COc1cccc2sc(N(CCCN(C)C)C(=O)CCS(=O)(=O)c3ccccc3)nc12` are “inactive”, 111%, 14.7 µM, 13.5 µM and 15.9 µM.
The corresponding values for `O=[N+]([O-])/C=C/c1ccc2c(ccn2Cc2ccccc2)c1` are “inactive”, 111%, 11.3 µM, 9.06 µM and 13.5 µM.
Take `O=[N+]([O-])c1ccc(Sc2nc3ccccc3o2)c([N+](=O)[O-])c1`: the outcome was inactive and the inhibition was 82.2%. The IC50 under setting [1] came to 45.1 µM. For the same compound, the IC50 (CXCR6, run 1, dose range 2) stood at 70.5 µM. For the setting “CXCR6, run 2, dose range 2”, this compound returned an IC50 of 19.7 µM.
The corresponding values for `CCN(CC)CCn1c(N)c(S(=O)(=O)c2ccccc2)c2nc3ccccc3nc21` are “inactive”, 99.2%, 15.9 µM, 13.2 µM and 18.5 µM.
Take `COc1cc(/C=C(\C#N)c2nc3ccccc3o2)ccc1O`: the outcome was inactive and the inhibition came to 73.9%. Moreover, the IC50 under setting [1] is 35.5 µM. The compound further yielded an IC50 (CXCR6, run 1, dose range 2) of 28.8 µM. This compound gave an IC50 (CXCR6, run 2, dose range 2) of 42.1 µM.
The corresponding values for `O=C(C(=Cc1ccc(F)cc1)C(=O)c1ccccc1)c1ccccc1` are “inactive”, 112%, 13.7 µM, 11.8 µM and 15.5 µM.
